Data from BindingDB's records for patent US11873292 (Shanghai Institute of Materia Medica, 2024).

Tests used:
[1] = target: T1, Amine oxidase [flavin-containing] A (Homo sapiens, UniProt P21397); assay: MAOA and MAOB In Vitro Activity Assay
T1 sequence (P21397 whole entry): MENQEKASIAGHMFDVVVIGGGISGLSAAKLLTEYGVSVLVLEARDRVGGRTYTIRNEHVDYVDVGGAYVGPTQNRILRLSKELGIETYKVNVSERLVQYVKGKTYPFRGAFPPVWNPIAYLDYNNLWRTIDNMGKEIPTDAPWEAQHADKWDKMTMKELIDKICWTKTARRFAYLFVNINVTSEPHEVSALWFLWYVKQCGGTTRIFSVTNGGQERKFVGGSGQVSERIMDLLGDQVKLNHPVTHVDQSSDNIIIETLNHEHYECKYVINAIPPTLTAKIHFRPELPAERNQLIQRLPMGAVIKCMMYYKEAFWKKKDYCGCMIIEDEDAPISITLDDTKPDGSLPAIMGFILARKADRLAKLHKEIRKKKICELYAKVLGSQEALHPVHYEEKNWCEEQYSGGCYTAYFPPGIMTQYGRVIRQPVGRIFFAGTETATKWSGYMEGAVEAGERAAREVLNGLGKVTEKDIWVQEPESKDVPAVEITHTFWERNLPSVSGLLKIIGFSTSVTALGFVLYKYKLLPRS

[2] = target: T2, Amine oxidase [flavin-containing] B (Homo sapiens, UniProt P27338); assay: MAOA and MAOB In Vitro Activity Assay
T2 sequence (P27338 whole entry): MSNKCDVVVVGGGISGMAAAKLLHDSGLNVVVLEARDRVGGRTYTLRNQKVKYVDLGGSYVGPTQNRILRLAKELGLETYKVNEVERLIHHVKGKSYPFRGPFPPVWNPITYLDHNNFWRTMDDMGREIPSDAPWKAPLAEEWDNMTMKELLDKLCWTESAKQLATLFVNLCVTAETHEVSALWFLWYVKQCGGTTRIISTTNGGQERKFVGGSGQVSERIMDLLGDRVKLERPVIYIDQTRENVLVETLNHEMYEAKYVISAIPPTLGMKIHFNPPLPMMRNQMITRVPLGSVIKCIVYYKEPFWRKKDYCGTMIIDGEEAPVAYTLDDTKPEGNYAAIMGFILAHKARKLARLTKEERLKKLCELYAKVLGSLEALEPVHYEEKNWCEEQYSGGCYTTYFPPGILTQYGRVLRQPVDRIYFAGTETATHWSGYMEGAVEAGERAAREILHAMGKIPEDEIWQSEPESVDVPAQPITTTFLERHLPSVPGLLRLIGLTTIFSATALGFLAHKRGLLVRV

[3] = target: Lysine-specific histone demethylase 1A (Homo sapiens, UniProt O60341); assay: LSD1 in vitro activity assay

O=S(=O)(c1ccccc1)N1CCc2cc(C3CC3NCc3c[nH]c4ccccc34)ccc21 (trans isomer) [US11873292, Compound A8]
IC50 [1]: 81.7 µM
IC50 [2]: > 100 µM
IC50 [3]: 0.0851 µM
